{"source": "patent US20230233634A1", "about": "“PROCYANIDINS FOR THE TREATMENT OF ENDOTHELIAL DYSFUNCTION TRIGGERED BY COVID-19” (priority 2020, published 2023)", "origin": "cited, not measured here", "test_system": "iNOS (inducible nitric oxide synthase)", "conditions": "direct anti-inflammatory activity"}
{"smiles": "O=C1CCC(Cc2ccc(O)c(O)c2)O1", "note": "(stereo not shown) [M1, δ-(3,4-dihydroxy-phenyl)-γ-valerolactone]", "values": [{"measurement": "iNOS expression and nitrite production", "value": "reducing iNOS (inducible nitric oxide synthase) expression and excessive nitrite production"}]}
